Laboratory results taken from PMC6382704, “LPM580098, a Novel Triple Reuptake Inhibitor of Serotonin, Noradrenaline, and Dopamine, Attenuates Neuropathic Pain” (Frontiers in Pharmacology, 2019).

How the values were obtained:
[1] = target: T1, SERT (serotonin transporter) (Homo sapiens, UniProt P31645); assay: radioligand displacement of [3H]imipramine, CHO cell membranes
T1 construct: gene SLC6A4

[2] = target: T2, NET (norepinephrine transporter) (Homo sapiens, UniProt P23975); assay: radioligand displacement of [3H]nisoxetine, CHO cell membranes
T2 construct: gene SLC6A2
T2 sequence (P23975 whole entry): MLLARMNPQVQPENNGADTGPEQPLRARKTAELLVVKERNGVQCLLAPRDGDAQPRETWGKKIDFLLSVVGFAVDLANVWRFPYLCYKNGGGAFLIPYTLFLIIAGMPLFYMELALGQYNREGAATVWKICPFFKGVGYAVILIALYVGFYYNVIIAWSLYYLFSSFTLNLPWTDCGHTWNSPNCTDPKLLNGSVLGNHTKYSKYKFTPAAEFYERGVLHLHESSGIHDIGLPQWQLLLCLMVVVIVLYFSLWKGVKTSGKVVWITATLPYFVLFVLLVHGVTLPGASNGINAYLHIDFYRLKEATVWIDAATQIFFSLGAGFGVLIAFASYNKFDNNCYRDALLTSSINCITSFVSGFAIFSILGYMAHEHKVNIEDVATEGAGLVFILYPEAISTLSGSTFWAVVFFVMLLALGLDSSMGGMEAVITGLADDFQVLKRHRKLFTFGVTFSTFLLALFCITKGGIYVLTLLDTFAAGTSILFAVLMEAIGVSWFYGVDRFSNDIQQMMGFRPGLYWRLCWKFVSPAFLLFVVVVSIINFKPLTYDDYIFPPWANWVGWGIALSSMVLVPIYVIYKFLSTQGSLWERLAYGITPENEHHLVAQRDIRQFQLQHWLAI

[3] = target: T3, DAT (dopamine transporter) (Homo sapiens, UniProt Q01959); assay: radioligand displacement of [3H]BTCP, CHO cell membranes
T3 construct: gene SLC6A3
T3 sequence (Q01959 whole entry): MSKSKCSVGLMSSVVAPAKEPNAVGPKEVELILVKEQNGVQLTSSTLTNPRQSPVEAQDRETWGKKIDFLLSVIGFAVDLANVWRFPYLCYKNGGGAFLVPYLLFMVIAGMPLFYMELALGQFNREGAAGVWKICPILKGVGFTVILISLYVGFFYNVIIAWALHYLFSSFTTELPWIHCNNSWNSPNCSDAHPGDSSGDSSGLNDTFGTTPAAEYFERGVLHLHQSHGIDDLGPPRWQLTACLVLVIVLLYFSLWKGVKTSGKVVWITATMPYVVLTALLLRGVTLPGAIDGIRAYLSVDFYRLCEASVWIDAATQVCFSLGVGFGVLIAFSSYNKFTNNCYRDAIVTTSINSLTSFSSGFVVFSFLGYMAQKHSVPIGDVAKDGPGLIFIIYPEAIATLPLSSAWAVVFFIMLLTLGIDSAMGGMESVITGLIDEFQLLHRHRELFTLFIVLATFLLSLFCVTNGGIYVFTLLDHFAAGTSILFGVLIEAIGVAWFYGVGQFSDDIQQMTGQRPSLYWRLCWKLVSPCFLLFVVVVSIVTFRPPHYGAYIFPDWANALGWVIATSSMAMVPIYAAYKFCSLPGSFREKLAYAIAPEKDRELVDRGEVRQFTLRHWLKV

T1 sequence (P31645 whole entry): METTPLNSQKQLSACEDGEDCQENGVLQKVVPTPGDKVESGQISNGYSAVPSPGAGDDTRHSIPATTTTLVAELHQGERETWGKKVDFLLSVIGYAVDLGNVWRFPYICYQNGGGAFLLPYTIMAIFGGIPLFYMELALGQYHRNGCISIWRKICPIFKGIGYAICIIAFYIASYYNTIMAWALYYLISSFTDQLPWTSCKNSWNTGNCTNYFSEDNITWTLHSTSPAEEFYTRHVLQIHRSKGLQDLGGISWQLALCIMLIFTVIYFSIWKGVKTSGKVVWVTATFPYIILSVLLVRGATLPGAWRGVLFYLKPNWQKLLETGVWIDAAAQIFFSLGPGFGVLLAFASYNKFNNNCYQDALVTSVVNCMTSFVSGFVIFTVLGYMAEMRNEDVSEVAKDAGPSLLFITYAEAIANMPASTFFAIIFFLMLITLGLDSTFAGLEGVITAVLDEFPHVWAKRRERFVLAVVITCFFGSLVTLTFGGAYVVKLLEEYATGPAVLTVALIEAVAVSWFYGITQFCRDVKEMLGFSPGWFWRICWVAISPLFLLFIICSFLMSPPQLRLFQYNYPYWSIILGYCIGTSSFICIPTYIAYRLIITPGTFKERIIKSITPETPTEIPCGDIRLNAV

`CN(C)CC(c1ccc(Oc2ccccc2)cc1)C1(O)CCCCC1` (stereo not drawn) [LPM580098, 1-[2-(dimethylamino)-1-(4-phenoxyphenyl)ethyl] cyclohexanol] was tested, and the inhibition at 10 µM [1] was 90.3%, the inhibition at 10 µM [2] was 45% and the inhibition at 10 µM [3] was 77.5%.
